Key:
Test in all cases: relative viability (nuclei count vs DMSO), 5 days (fraction); higher = more cells survive
VX-702 + Tozasertib = compound: NC(=O)c1ccc(N(C(N)=O)c2c(F)cccc2F)nc1-c1ccc(F)cc1F [VX-702] + Cc1cc(Nc2cc(N3CCN(C)CC3)nc(Sc3ccc(NC(=O)C4CC4)cc3)n2)n[nH]1 [Tozasertib] (partner 0.1 µM)
Summary of the method: (§1)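 Relative viability divides the nuclei count in treated wells by that in vehicle wells. Lung cancer cell lines were seeded in 1536-well plates, dosed by pin tool the next day, and fixed and stained after 5 days in one step with final 0.05% Triton X-100, 1% formaldehyde and 1 ug/ml Hoechst. Dosing was a single drug or a fixed anchor-drug dose plus five library-drug doses (not always all listed) in √10 steps, and values are medians of duplicate plates imaged at 4×.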

VX-702 + Olaparib = compound: NC(=O)c1ccc(N(C(N)=O)c2c(F)cccc2F)nc1-c1ccc(F)cc1F [VX-702] + O=C(c1cc(Cc2n[nH]c(=O)c3ccccc23)ccc1F)N1CCN(C(=O)C2CC2)CC1 [Olaparib] (partner 8 µM)
Summary of the method: as §1

VX-702 + Luminespib = compound: NC(=O)c1ccc(N(C(N)=O)c2c(F)cccc2F)nc1-c1ccc(F)cc1F [VX-702] + CCNC(=O)c1noc(-c2cc(C(C)C)c(O)cc2O)c1-c1ccc(CN2CCOCC2)cc1 [Luminespib] (partner 0.01 µM)
Summary of the method: as §1

Dabrafenib + Vorinostat = compound: CC(C)(C)c1nc(-c2cccc(NS(=O)(=O)c3c(F)cccc3F)c2F)c(-c2ccnc(N)n2)s1 [Dabrafenib] + O=C(CCCCCCC(=O)Nc1ccccc1)NO [Vorinostat] (partner 1 µM)
Summary of the method: as §1

Cell Line | relative viability (VX-702 + Tozasertib; first compound 0.02 µM) | relative viability (VX-702 + Tozasertib; first compound 0.2 µM) | relative viability (VX-702 + Tozasertib; first compound 0.6325 µM) | relative viability (VX-702 + Tozasertib; first compound 2 µM) | relative viability (VX-702 + Olaparib; first compound 0.02 µM) | relative viability (VX-702 + Olaparib; first compound 0.2 µM) | relative viability (VX-702 + Olaparib; first compound 0.6325 µM) | relative viability (VX-702 + Olaparib; first compound 2 µM) | relative viability (VX-702 + Luminespib; first compound 0.02 µM) | relative viability (VX-702 + Luminespib; first compound 0.2 µM) | relative viability (VX-702 + Luminespib; first compound 0.6325 µM) | relative viability (VX-702 + Luminespib; first compound 2 µM) | relative viability (Dabrafenib + Vorinostat; first compound 0.003 µM) | relative viability (Dabrafenib + Vorinostat; first compound 0.009487 µM) | relative viability (Dabrafenib + Vorinostat; first compound 0.03 µM) | relative viability (Dabrafenib + Vorinostat; first compound 0.09487 µM) | relative viability (Dabrafenib + Vorinostat; first compound 0.3 µM)
NCI-H2023 | 0.264 | 0.308 | 0.296 | 0.38 | 0.459 | 0.461 | 0.552 | 0.637 | 0.692 | 0.829 | 0.826 | 0.974 | 0.716 | 0.717 | 0.733 | 0.559 | 0.6
NCI-H2085 | 0.847 | 0.762 | 0.864 | 0.789 | 0.818 | 0.824 | 0.878 | 0.833 | 0.479 | 0.462 | 0.477 | 0.41 | 0.669 | 1.01 | 0.801 | 0.79 | 0.748
NCI-H2087 | 0.277 | 0.236 | 0.284 | 0.281 | 0.552 | 0.58 | 0.669 | 0.709 | 0.162 | 0.141 | 0.169 | 0.138 | – | 0.8 | 0.779 | 0.594 | 0.809
NCI-H2126 | 0.816 | 0.859 | 0.783 | 1.04 | 0.901 | 0.91 | 0.945 | 0.98 | 0.879 | 0.918 | 0.834 | 0.918 | 0.693 | 0.916 | 0.767 | 0.888 | 0.993
NCI-H2170 | 0.722 | 0.696 | 0.753 | 0.871 | 0.611 | 0.546 | 0.631 | 0.676 | 0.413 | 0.638 | 0.52 | 0.804 | 0.777 | 0.798 | 0.703 | 0.647 | 0.732
NCI-H2228 | 0.314 | 0.319 | 0.199 | 0.23 | 0.866 | 0.794 | 0.754 | 0.864 | 0.101 | 0.144 | 0.145 | 0.124 | 0.501 | 0.53 | 0.656 | 0.381 | 0.877
NCI-H2342 | 0.527 | 0.468 | 0.484 | 0.524 | 0.401 | 0.457 | 0.475 | 0.466 | 0.66 | 0.848 | 0.72 | 0.821 | 0.551 | 0.702 | 0.664 | 0.696 | 0.721
NCI-H2347 | 0.592 | – | 0.505 | 0.521 | 0.498 | 0.467 | 0.638 | 0.456 | 0.446 | – | 0.909 | 0.552 | – | 0.603 | 0.385 | 0.551 | 0.591
